Results from patent publication US6596733B2, “Use of nitric oxide scavengers to treat side effects caused by therapeutic administration of sources of nitric oxide” (Medinox, Inc., priority 1998, dated 2003).

Assays:
[1] = test system: rats having physiological levels of nitric oxide; conditions: rat, in vivo
Experimental: (§1) A pressure sensor chip for a telemetric device (Data Scientific International, Saint Paul, Minn.) was implanted in the dorsal abdominal aorta of male Wistar rat (250-280 g). The rats were allowed to recover from the surgery over a period of 24 hours. The implanted rats were separated into two groups (n=3); One received 10 mg/ml of L-proline dithiocarbamate (L-PD) in drinking water and the other received only distilled water for 14 days. […] On average, in the experimental group, each rat received about 800 mg/kg/day for 14 days.

[2] = 10 mg/ml in drinking water for 14 days
Experimental: as §1

## NC(=S)S.O=C(O)[C@@H]1CCCN1 [L-PD, L-proline dithiocarbamate]
[1]
  effect on blood pressure: no effect
  effect on heart rate: no effect
[2]
  amounts of water consumption, experimental vs control group: no significant difference
  weight gain, experimental vs control group: no significant difference
